This passage reports Activity, IC50 and EC50 results from ChEMBL document CHEMBL1155627, “HIV-Inhibitory prenylated xanthones and flavones from Maclura tinctoria” (J Nat Prod, 2000).

As usually defined, the IC50 is the concentration that gives 50% inhibition. By EC50 is commonly meant the concentration that produces a half-maximal response.

Values after ≈ are worked out from the molar mass of the structure shown. Active and inactive are the calls of the source. No cut-off for these calls is given here.

Test [1] deals with Human immunodeficiency virus 1. Put plainly: Antiviral activity against HIV1. The class given is functional, organism-based.
In the next test the test system is CEM-SS. In words: Cytotoxicity against human CEM-SS cells. Type of test: cell-based.

In the case of `CC(C)=CCc1c(-c2ccc(O)cc2O)oc2cc3c(c(O)c2c1=O)CCC(C)(C)O3` [DIHYDROCUDRAFLAVONE B], the outcome in test [1] was inactive. This molecule yielded an IC50 with CEM-SS of 12 µg/mL (≈ 28.4 µM).
For `CC(C)=CCc1c(O)c(CC=C(C)C)c2oc3c(O)ccc(O)c3c(=O)c2c1O` [GARTANIN], the result in test [1] was inactive. The IC50 in the test with CEM-SS came to 5.3 µg/mL (≈ 13.4 µM).
With `CC(C)=CCc1c(O)cc2oc(-c3ccc(O)cc3O)c(CC=C(C)C)c(=O)c2c1O` [CUDRAFLAVONE C], in test [1], the result was inactive. In the test with CEM-SS, the IC50 was determined as 5 µg/mL (≈ 11.8 µM).
In test [1], `C=CC(C)(C)c1c(O)c(CC=C(C)C)c2oc3cc(O)c(O)cc3c(=O)c2c1O` [MACLURAXANTHONE B] came in with an EC50 of 1 µg/mL (≈ 2.52 µM). The molecule further gave an IC50 in the test with CEM-SS of 2.2 µg/mL (≈ 5.55 µM).
The corresponding values for `C=CC(C)(C)c1c(O)c(CC=C(C)C)c2oc3c(O)c(O)ccc3c(=O)c2c1O` [MACLURAXANTHONE C] are 1.3 µg/mL (≈ 3.28 µM) and 3.7 µg/mL (≈ 9.33 µM).
The like results for `CC(C)=CCc1c(O)cc2oc3c(c(=O)c2c1O)C(C=C(C)C)Oc1cc(O)ccc1-3` (centres undefined) [ISOCYCLOMULBERRIN] were, in that order, 7.5 µg/mL (≈ 17.8 µM) and 17 µg/mL (≈ 40.4 µM).
For the molecule `CC(C)=CCc1c(O)c(CC=C(C)C)c2oc3c(O)cccc3c(=O)c2c1O` [8-DEOXYGARTANIN], the outcome in test [1] was inactive. The molecule further yielded an IC50 with CEM-SS of 4.9 µg/mL (≈ 12.9 µM).
